# From patent US4312948A, “Enzymic microbiological process for producing optically active aminoacids starting from hydantoins and/or racemic carbamoyl derivatives” (priority 1978, dated 1982)
# Target: T1, carbamoylytic enzyme (Enzyme II, carbamoylase) (Agrobacterium radiobacter, UniProt Q44185)
# T1 construct: endogenous in cells; host or cells: Agrobacterium sp. cells, acetone-dried powder (crude, enzyme not purified)
# Test: enzymic activity test of acetonic powder of Agrobacterium sp. cells on N-carbamoyl aminoacid substrates (NH4+ by phenol-hypochlorite method)
# Assay type: biochemical
# Conditions: 20 mM substrate in pyrophosphate buffer 0.1 M pH 7.7, acetonic powder, 40° C., 1-hour incubation, under nitrogen
# Experimental: Cells of Agrobacterium sp. strain were prepared as described in Example 1. A few grams of moist cellule slurry was slurried in pyrophosphate buffer (0.1 M pH 7.7) and subjected to acetonic treatment in the cold.
# After removing acetone by filtration, the acetonic preparation thus obtained was dried to constant weight in vacuum at 35° C. The dried material was homogenized in a mortar and powder thus obtained was used for the enzymic activity tests.
# The caetonic powder was assayed on the following substrates: N-carbamoyl-D-(-)-alanine, N-carbamoyl-D(-) valine, N-carbamoyl-D-(-)glutamic acid, N-carbamoyl-D(-)-parahydroxyphenylglycine,N-carbamoyl-D(-)-paramethoxyphenylglycine, N-carbamoyl-D-(-)-phenylglycine, N-carbamoyl-L(+)-phenylglycine, N-carbamoyl-D(-)-phenylalanine, N-carbamoyl-L(+)-glutamic acid and N-carbamoyl-D(-) (2-thienyl)-glycine.
# Thus, 20 mM solution were prepared of each carbamoyl derivative in pyrophosphate buffer 0.1 M pH 7.7, and, to 10 mls of each solution there was added an adequate quantity of acetonic powder, equal for each substrate.
# The incubation was carried out under a UPP nitrogen blanket with stirring at a temperature of 40° C. After 1-hour incubation, the quantity of the produced aminoacid was measured by determining in the reaction mixtures the concentration of the NH4^+ ion which has been reached, with the phenol-hypochlorite method indicated in Example 2.
# T1 sequence (Q44185 whole entry): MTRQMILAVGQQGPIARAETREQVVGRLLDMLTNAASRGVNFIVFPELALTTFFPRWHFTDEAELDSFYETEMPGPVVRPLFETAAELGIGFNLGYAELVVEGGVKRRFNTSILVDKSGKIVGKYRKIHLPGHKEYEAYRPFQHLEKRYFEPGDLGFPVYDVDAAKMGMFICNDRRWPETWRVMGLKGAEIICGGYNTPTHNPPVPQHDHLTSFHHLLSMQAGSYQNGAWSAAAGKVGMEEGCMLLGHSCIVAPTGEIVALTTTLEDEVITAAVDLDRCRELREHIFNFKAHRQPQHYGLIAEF
row,SMILES,"% ACTIVITY (hydrolytic activity, assuming as 100 the activity against N-carbamoyl-D(-)-parahydroxyphenylglycine)"
1,C[C@@H](NC(N)=O)C(=O)O [N-carbamoyl-D-(-)-alanine],57.5%
2,COc1ccc([C@@H](NC(N)=O)C(=O)O)cc1 [N-carbamoyl-D(-)-paramethoxyphenylglycine],40.0%
3,NC(=O)N[C@@H](CCC(=O)O)C(=O)O [N-carbamoyl-L(+)glutamic acid],0%
4,CC(C)[C@@H](NC(N)=O)C(=O)O [N-carbamoyl-D(-)-valine],34.25%
5,NC(=O)N[C@H](C(=O)O)c1ccccc1 [N-carbamoyl-L(+)-phenylglycine],0%
6,NC(=O)N[C@H](CCC(=O)O)C(=O)O [N-carbamoyl-D(-)glutamic acid],21.7%
7,NC(=O)N[C@@H](C(=O)O)c1ccc(O)cc1 [N-carbamoyl-D(-)-parahydroxyphenylglycine],100.0%
8,NC(=O)N[C@H](Cc1ccccc1)C(=O)O [N-carbamoyl-D(-)-phenylalanine],50.0%
9,NC(=O)N[C@@H](C(=O)O)c1cccs1 [N-carbamoyl-D(-)-(2-thienyl)glycine],40.7%
10,NC(=O)N[C@@H](C(=O)O)c1ccccc1 [N-carbamoyl-D(-)-phenylglycine],81.25%

# Same assay, conditions: 20 mM substrate, pyrophosphate buffer 0.1 M pH 7.7, 40° C., 1-hour incubation
row,SMILES,"activity of the carbamoylytic enzyme, ranking among substrates"
1,NC(=O)N[C@@H](C(=O)O)c1ccc(O)cc1 [N-carbamoyl-D(-)-parahydroxyphenylglycine],highest activity
